# Experimental data as given in US20090239757A1, “Control Sequences Responding to AMP and Uses Thereof” (priority 2004, published 2009).
# Residues, ends and D or L forms follow the SMILES beside them.
# Tested on: E. coli TOP10
# Assay: microarray transcription profile of E. coli TOP10 expressing Novispirin G10 (pDRS5-novispirin, arabinose induced) relative to control strain pBAD gIII A
# Format: cell-based, Escherichia coli
# Procedure: In order to obtain a transcriptional profile of E. coli expressing Novispirin G10, 2×10 mL sterile LB media (10 g/L Bactotryptone, 5 g/L Yeast extract, and 10 g/L NaCl) containing 100 mg/L ampicillin was inoculated with E. coli TOP10 harbouring pDRS5-novispirin and pBAD gIII A, respectively. These cultures were grown overnight at 37° C. at 180 rpm. The overnight cultures were diluted 1/100 into fresh sterile RM media (2% Casamino Acids, 0.2% glycerol, 1 mM MgCl2, 0.1 mM thiamine, 6 g/L Na2HPO4, 3 g/L KH2PO4.2H2O, 0.5 g/L NaCl, 0.1 g/L NH4Cl at pH 7.4) supplemented with 100 mg/L ampicillin and 0.1% arabinose. 100 mL of each culture was grown at 37° C., 240 rpm for 4.5 hours before being harvested by poured into centrifugation tubes containing 10 mL pre-frozen milliQ water and immediate centrifugation at 4200 g for 15 minutes at 4° C. Immediately hereafter, the supernatant was decanted and the cell […] was frozen at −20° C. for storage until RNA preparation was initiated.
# Total RNA was isolated from the two E. coli (expressing either Novispirin G10 or a control peptide) cultures by use of the High Pure RNA Isolation kit (Roche, cat #1 828 665) according to the manufacturers instructions. Residual DNA was removed on-column with RNase-free DNase. Labelled samples were prepared from 30 μg of total bacterial RNA. Fluorescent first strand cDNA was prepared by random primed reverse transcription (Superscript II; Life Technologies) by use of random hexamers for cDNA synthesis. 2 μl (20 μg) of random primer was mixed with 15 μl (30 μg) of total RNA, incubated for 5 min at 70° C., and cooled on ice. To each sample was added 5× first strand buffer (6 μl), 0.1 M DTT (3 μl), dNTP mix (5 mM dATP, dGTP and dTTP and 2 mM dCTP) (1 μl), RNaseOut (1 μl), Superscript II reverse transcriptase (2 μl) and Cy-dCTP (3 μl). Reverse transcription was carried out at 42° C. for 1 hr. RNA was removed by addition of 10 μl NaOH (1 M) and incubation at 65° C. for 10 min. The samples were neutralised by addition of 10 μl HCl (1 M). Cy3 and Cy5 cDNA samples were mixed and immediately purified with a GFX PCR DNA and Gel Band Purification Kit (Amersham Biosciences).
# Slides were pre-hybridised at 42° C. for 45 min in a solution containing 4×SSC+0.5% SDS+1% BSA and dried by centrifugation. Hybridizations were in a volume of 25 μl under a supported cover slip at 42° C. for 16-18 h at high humidity. The hybridisation mixture was labelled cDNA in a formamide-based hybridisation buffer (MWG—supplied with the pan-arrays). Cover slip and supports were gently removed (2×SSC in a wash tray) and arrays were washed by immersion into 2×SSC+0.1% SDS for 5 min, 1×SSC+0.1% SDS for 5 min, 0.5×SSC for 5 min and 1× millipore water for 10 sec and dried by centrifugation. Slides were scanned on a GMS 418 scanner to detect Cy3 and Cy5 fluorescence. Data analysis was carried out using ImaGene 5.0 and GeneSight 3.5 from BioDiscovery (www.biodiscovery.com). Two biological replicate experiments with four replicate hybridisations in each experiment were carried out for generation of data.
# Pan E. coli K12 Arrays from MWG Biotech were used in this study (lot No.: 020206). The 4239 E. coli K12 specific oligonucleotide probes present on this glass-based DNA chip represent the complete Escherichia coli (K12) genome
# Gene expression data was analyzed using the GeneSight 4.1.5 software from BioDiscovery. Data was prepared using local background correction, removal of flagged spots (contaminated background or signal), floor value raising data to a minimum value of 20, calculation of ratio, log(2) transformation of ratios, print-tip lowess normalization, and finally combination of replicate spot.
smiles,measurement,value
CC[C@H](C)[C@H](NC(=O)CNC(=O)[C@H](CCCCN)NC(=O)[C@H](CCCNC(=N)N)NC(=O)[C@@H](NC(=O)[C@@H](NC(=O)[C@H](CCCNC(=N)N)NC(=O)[C@H](CCCNC(=N)N)NC(=O)[C@H](CC(C)C)NC(=O)[C@H](CC(N)=O)NC(=O)[C@@H](N)CCCCN)[C@@H](C)CC)[C@@H](C)CC)C(=O)N[C@@H](Cc1c[nH]cn1)C(=O)N[C@H](C(=O)N[C@H](C(=O)N[C@@H](CCCCN)C(=O)N[C@@H](CCCCN)C(=O)N[C@@H](Cc1ccc(O)cc1)C(=O)NCC(=O)O)[C@@H](C)CC)[C@@H](C)CC [Novispirin G10] (H-KNLRRIIRKGIHIIKKYG-OH; N-terminus assumed),"ratio, gene abrB",−6.2
same,"ratio, gene ackA",−4.8
same,"ratio, gene adhP",3.8
same,"ratio, gene aer",14.3
same,"ratio, gene agaZ",−2.9
same,"ratio, gene ais",14.1
same,"ratio, gene amyA",5.8
same,"ratio, gene ansB",−3.8
same,"ratio, gene appB",47.2
same,"ratio, gene appC",3.5
same,"ratio, gene argA",3.8
same,"ratio, gene aspA",−5.7
same,"ratio, gene asr",19.2
same,"ratio, gene atpC",3.1
same,"ratio, gene b0919",−2.8
same,"ratio, gene b1044",−3.0
same,"ratio, gene b1354",3.0
same,"ratio, gene b1355",5.0
same,"ratio, gene b1362",−14.9
same,"ratio, gene b1394",2.8
same,"ratio, gene b1408",3.3
same,"ratio, gene b1422",3.0
same,"ratio, gene b1450",4.8
same,"ratio, gene b1454",9.7
same,"ratio, gene b1518",−3.8
same,"ratio, gene b1520",3.2
same,"ratio, gene b1582",6.8
same,"ratio, gene b1583",4.3
same,"ratio, gene b1593",−5.0
same,"ratio, gene b1605",3.0
same,"ratio, gene b1627",3.5
same,"ratio, gene b1643",4.5
same,"ratio, gene b1691",3.7
same,"ratio, gene b1721",98.3
same,"ratio, gene b1724",9.1
same,"ratio, gene b1825",8.7
same,"ratio, gene b1826",4.6
same,"ratio, gene b1836",6.9
same,"ratio, gene b1837",5.3
same,"ratio, gene b1903",−3.1
same,"ratio, gene b1953",3.8
same,"ratio, gene b1995",−3.1
same,"ratio, gene b2097",8.1
same,"ratio, gene b2253",8.4
same,"ratio, gene b2254",5.5
same,"ratio, gene b2256",4.0
same,"ratio, gene b2324",−4.0
same,"ratio, gene b2372",3.8
same,"ratio, gene b2383",−4.1
same,"ratio, gene b2809",3.4
same,"ratio, gene b2833",5.1
same,"ratio, gene b2879",2.9
same,"ratio, gene b3023",3.9
same,"ratio, gene b3100",9.9
same,"ratio, gene blc",4.9
same,"ratio, gene bolA",13.0
same,"ratio, gene btuE",3.4
same,"ratio, gene btuR",−2.8
same,"ratio, gene celF",4.1
same,"ratio, gene cheR",6.8
same,"ratio, gene clpB",−3.6
same,"ratio, gene codA",3.4
same,"ratio, gene crcA",11.7
same,"ratio, gene csgF",2.8
same,"ratio, gene dacC",3.6
same,"ratio, gene dcuC",−6.2
same,"ratio, gene deoA",3.8
same,"ratio, gene deoB",3.0
same,"ratio, gene deoR",2.9
same,"ratio, gene dgt",−2.7
same,"ratio, gene dksA",4.1
same,"ratio, gene dnaJ",−3.0
same,"ratio, gene dnaK",−2.8
same,"ratio, gene dps",4.4
same,"ratio, gene ebgR",−3.0
same,"ratio, gene ecpD",−3.7
same,"ratio, gene elaB",9.7
same,"ratio, gene entF",−3.2
same,"ratio, gene evgA",−2.9
same,"ratio, gene fadL",−2.6
same,"ratio, gene fdnG",−3.3
same,"ratio, gene fecE",−2.7
same,"ratio, gene fecR",−3.6
same,"ratio, gene feoA",−6.1
same,"ratio, gene feoB",−5.2
same,"ratio, gene fepC",−2.7
same,"ratio, gene fhuE",−2.7
same,"ratio, gene fimC",3.8
same,"ratio, gene flgG",−2.6
same,"ratio, gene flhB",−2.8
same,"ratio, gene flhD",−2.7
same,"ratio, gene fliD",5.4
same,"ratio, gene fliJ",−3.1
same,"ratio, gene fliQ",4.5
same,"ratio, gene folA",3.2
same,"ratio, gene frdC",−5.0
same,"ratio, gene frwB-r",4.0
same,"ratio, gene gabP",8.2
same,"ratio, gene gabT",6.5
same,"ratio, gene gapC_1",3.3
same,"ratio, gene gatA",−3.0
same,"ratio, gene gatC",−2.7
same,"ratio, gene gatD",−3.2
same,"ratio, gene gatY",−6.2
same,"ratio, gene gatz",−6.8
same,"ratio, gene gcvH",−3.9
same,"ratio, gene gcvT",−4.8
same,"ratio, gene glk",3.4
same,"ratio, gene glpA",−2.7
same,"ratio, gene glpA-r",−2.9
same,"ratio, gene glpB",−7.8
same,"ratio, gene glpC",−5.9
same,"ratio, gene glpT",−3.6
same,"ratio, gene gltB",−2.7
same,"ratio, gene gntT",−4.3
same,"ratio, gene grpE",−3.0
same,"ratio, gene hdeA",7.7
same,"ratio, gene hdeB",7.9
same,"ratio, gene hdeD",4.3
same,"ratio, gene hemL",8.3
same,"ratio, gene hisC",−4.5
same,"ratio, gene hscA",3.2
same,"ratio, gene hslU",−3.2
same,"ratio, gene hslV",−3.0
same,"ratio, gene hybB",−2.9
same,"ratio, gene hyfD",−2.9
same,"ratio, gene hypB",−3.4
same,"ratio, gene hypC",−3.0
same,"ratio, gene hypE",−3.9
same,"ratio, gene ibpB",−6.5
same,"ratio, gene katE",9.9
same,"ratio, gene lacY",−2.7
same,"ratio, gene lacZ",−9.1
same,"ratio, gene lon",−2.9
same,"ratio, gene malE",4.6
same,"ratio, gene malM",4.0
same,"ratio, gene mcrA",3.9
same,"ratio, gene menA",−2.9
same,"ratio, gene menB",2.9
same,"ratio, gene metE",4.0
same,"ratio, gene mfd-r",−4.6
same,"ratio, gene mglC",−2.6
same,"ratio, gene mgtA",7.5
same,"ratio, gene minD",−2.9
same,"ratio, gene mlc",−2.6
same,"ratio, gene mopA",−3.6
same,"ratio, gene mopB",−9.1
same,"ratio, gene mrr",2.9
same,"ratio, gene nagA",3.7
same,"ratio, gene nagB",8.8
same,"ratio, gene napD",−3.5
same,"ratio, gene napF",−3.2
same,"ratio, gene napH",−7.9
same,"ratio, gene narU",15.1
same,"ratio, gene narX",−4.0
same,"ratio, gene narY",11.0
same,"ratio, gene narZ",4.9
same,"ratio, gene ndh",3.1
same,"ratio, gene nirB",−2.9
same,"ratio, gene nirC",−3.0
same,"ratio, gene nirD",−5.7
same,"ratio, gene nmpC",−6.6
same,"ratio, gene nrfA",−12.7
same,"ratio, gene ompF",−4.5
same,"ratio, gene ompX",4.7
same,"ratio, gene osmC",7.2
same,"ratio, gene osmE",11.7
same,"ratio, gene osmY",6.4
same,"ratio, gene otsA",5.2
same,"ratio, gene otsB",5.6
same,"ratio, gene pepB",4.7
same,"ratio, gene pheP",3.4
same,"ratio, gene phnE",4.6
same,"ratio, gene phoP",2.8
same,"ratio, gene phoQ",3.7
same,"ratio, gene potG",4.0
same,"ratio, gene poxB",3.3
same,"ratio, gene pphA",5.2
same,"ratio, gene proW",7.9
same,"ratio, gene pspA",6.7
same,"ratio, gene pspB",6.9
same,"ratio, gene pspC",15.8
same,"ratio, gene pspD",13.5
same,"ratio, gene pspE",9.4
same,"ratio, gene pssA",−2.8
same,"ratio, gene ptsP-r",−3.9
same,"ratio, gene pyrE",4.2
same,"ratio, gene queA",−2.9
same,"ratio, gene rcsA",−2.8
same,"ratio, gene rfaJ",−2.6
same,"ratio, gene rfaP",−3.0
same,"ratio, gene rmf-r",3.9
same,"ratio, gene rnt",3.9
same,"ratio, gene rpiR",−3.1
same,"ratio, gene rpoB-r",2.8
same,"ratio, gene rpsV",5.2
same,"ratio, gene rstB",3.6
same,"ratio, gene sfcA",5.8
same,"ratio, gene sfmC",11.4
same,"ratio, gene sfsA",6.4
same,"ratio, gene slp",3.6
same,"ratio, gene smp",−3.2
same,"ratio, gene sohA",4.3
same,"ratio, gene speG",3.8
same,"ratio, gene srlA",−2.7
same,"ratio, gene srlR",−2.6
same,"ratio, gene talA",11.7
same,"ratio, gene tdcB",−2.7
same,"ratio, gene tdcC",−5.1
same,"ratio, gene thrB",3.3
same,"ratio, gene tktB",26.5
same,"ratio, gene tolC",3.9
